Measurements published in ChEMBL document CHEMBL5244223, “l,8-Naphthalimide based DNA intercalators and anticancer agents. A systematic review from 2007 to 2017” (Eur J Med Chem, 2018).
Values after ≈ are worked out from the molar mass of the structure shown.

Experiments:
[1] = system: Calf thymus DNA; test: Binding affinity to calf thymus DNA assessed as DNA intercalation by measuring change in melting temperature by thermal denaturation assay; format: nucleic-acid assay; settings: Bos taurus
[2] = system: A549; test: Antiproliferative activity against human A549 cells assessed as inhibition of cell growth; format: functional, cell-based
[3] = system: HL-60; test: Antiproliferative activity against human HL-60 cells assessed as inhibition of cell growth; format: functional, cell-based
[4] = system: HeLa; test: Antiproliferative activity against human HeLa cells assessed as inhibition of cell growth; format: functional, cell-based
[5] = system: Calf thymus DNA; test: Binding affinity to calf thymus DNA assessed as DNA intercalation by measuring binding constant by fluorescence spectroscopic assay; format: nucleic-acid assay; settings: Bos taurus
[6] = system: MCF7; test: Cytotoxicity against human MCF7 cells assessed as inhibition of cell growth by MTT assay; format: functional, cell-based
[7] = system: HeLa; test: Cytotoxicity against human HeLa cells assessed as inhibition of cell growth by MTT assay; format: functional, cell-based
[8] = system: SGC-7901; test: Cytotoxicity against human SGC-7901 cells assessed as inhibition of cell growth by MTT assay; format: functional, cell-based
[9] = system: A549; test: Cytotoxicity against human A549 cells assessed as inhibition of cell growth by MTT assay; format: functional, cell-based
[10] = system: SMMC-7721; test: Antiproliferative activity against human SMMC-7721 cells assessed as inhibition of cell proliferation incubated for 48 hrs by MTT assay; format: functional, cell-based; settings: SMMC-7721, 48 h
[11] = system: Calf thymus DNA; test: Binding affinity to calf thymus DNA assessed as binding constant by UV-Vis spectroscopic analysis; format: nucleic-acid assay; settings: Bos taurus
[12] = system: MCF7; test: Antiproliferative activity against human MCF7 cells assessed as inhibition of cell proliferation incubated for 48 hrs by MTT assay; format: functional, cell-based; settings: MCF7, 48 h
[13] = system: HeLa; test: Antiproliferative activity against human HeLa cells assessed as inhibition of cell proliferation incubated for 48 hrs by MTT assay; format: functional, cell-based
[14] = system: MCF7; test: Antiproliferative activity against human MCF7 cells assessed as inhibition of cell proliferation incubated for 72 hrs by MTT assay; format: functional, cell-based; settings: MCF7, 72 h
[15] = system: A549; test: Antiproliferative activity against human A549 cells assessed as inhibition of cell proliferation incubated for 72 hrs by MTT assay; format: functional, cell-based; settings: A549, 72 h
[16] = system: Jurkat; test: Antiproliferative activity against human Jurkat cells assessed as inhibition of cell proliferation incubated for 72 hrs by MTT assay; format: functional, cell-based
[17] = system: MCF7; test: Cytotoxicity against human MCF7 cells assessed as inhibition of cell growth incubated for 24 hrs by CCK-8 assay; format: functional, cell-based; settings: MCF7, 24 h
[18] = system: Calf thymus DNA; test: Binding affinity to calf thymus DNA assessed as binding constant by fluorescence based EtBr-displacement based UV-Vis spectroscopic analysis; format: nucleic-acid assay; settings: Bos taurus
[19] = system: U-937; test: Cytotoxicity against human U-937 cells assessed as inhibition of cell growth incubated for 96 hrs by MTT assay; format: functional, cell-based; settings: U-937, 96 h
[20] = system: HL-60; test: Cytotoxicity against human HL-60 cells assessed as inhibition of cell growth incubated for 96 hrs by MTT assay; format: functional, cell-based; settings: HL-60, 96 h
[21] = system: HeLa; test: Cytotoxicity against human HeLa cells assessed as inhibition of cell growth incubated for 48 hrs by MTT spectrophotometric assay; format: functional, cell-based
[22] = system: A549; test: Cytotoxicity against human A549 cells assessed as inhibition of cell growth incubated for 48 hrs by MTT spectrophotometric assay; format: functional, cell-based; settings: A549, 48 h
[23] = system: SGC-7901; test: Cytotoxicity against human SGC-7901 cells assessed as inhibition of cell growth incubated for 48 hrs by MTT spectrophotometric assay; format: functional, cell-based; settings: SGC-7901, 48 h
[24] = system: MCF7; test: Antiproliferative activity against human MCF7 cells assessed as inhibition of cell proliferation; format: functional, cell-based
[25] = system: HT-29; test: Antiproliferative activity against human HT-29 cells assessed as inhibition of cell proliferation; format: functional, cell-based
[26] = system: Calf thymus DNA; test: Binding affinity to calf thymus DNA assessed as DNA intercalation by measuring change in melting temperature by thermal denaturation assay based UV-Vis spectrophotometric analysis; format: nucleic-acid assay; settings: Bos taurus
[27] = system: HCT-116; test: Cytotoxicity against human HCT-116 cells assessed as inhibition of cell growth incubated for 24 hrs by XTT assay; format: functional, cell-based; settings: HCT-116, 24 h
[28] = system: PANC-1; test: Cytotoxicity against human PANC-1 cells assessed as inhibition of cell growth incubated for 24 hrs by XTT assay; format: functional, cell-based; settings: PANC-1, 24 h
[29] = system: SK-MEL-28; test: Growth inhibition against human SK-MEL-28 cells at 10 uM incubated for 48 hrs by sulforhodamine B reagent assay; format: functional; settings: read-out: GI
[30] = system: A2780; test: Cytotoxicity against human A2780 cells assessed as inhibition of cell growth incubated for 72 hrs by SRB assay; format: functional, cell-based; settings: A2780, 72 h
[31] = system: Staphylococcus aureus; test: Antibacterial activity against Staphylococcus aureus MTCC 96 assessed as inhibition of bacterial growth by agar well diffusion assay; format: functional
[32] = system: Pseudomonas aeruginosa; test: Antibacterial activity against Pseudomonas aeruginosa MTCC 741 assessed as inhibition of bacterial growth by agar well diffusion assay; format: functional
[33] = system: Staphylococcus epidermidis; test: Antibacterial activity against Staphylococcus epidermidis MTCC 435 assessed as inhibition of bacterial growth by agar well diffusion assay; format: functional
[34] = system: Escherichia coli; test: Antibacterial activity against Escherichia coli MTCC 443 assessed as inhibition of bacterial growth by agar well diffusion assay; format: functional
[35] = system: Calf thymus DNA; test: Binding affinity to calf thymus DNA assessed as binding constant incubated for 30 mins by fluorescence based EtBr-displacement assay; format: nucleic-acid assay; settings: Bos taurus
[36] = Antioxidant activity assessed as DPPH radical scavenging activity incubated for 30 mins by UV-Vis spectrophotometer assay; format: functional
[37] = Antioxidant activity assessed as hydrogen peroxide free radical scavenging activity incubated for 10 mins; format: functional

CN(C)CCN1C(=O)c2cccc3c(NCCNCCNCCN)ccc(c23)C1=O
ΔTm [1]: 11.8 °C | IC50 [2]: 13.1 µM | IC50 [3]: 13.1 µM | IC50 [4]: 13.1 µM

CN(C)CCN1C(=O)c2cccc3c(N4CCC[C@@H]4CO)ccc(c23)C1=O
Kb [5]: 1.8 10^4/M | IC50 [6]: 0.87 µM | IC50 [7]: 0.87 µM | IC50 [8]: 0.87 µM | IC50 [9]: 0.87 µM

CN(C)CCN1C(=O)c2cccc3cc(-n4ccnn4)cc(c23)C1=O
IC50 [10]: 0.3 µM | Kb [11]: 5.1 10^5/M | IC50 [12]: 0.3 µM | IC50 [13]: 0.3 µM

O=C1c2cccc3cccc(c23)C(=O)N1CC/N=C/c1ccccn1
IC50 [14]: 5.67 µM | IC50 [15]: 5.67 µM | IC50 [16]: 5.58 µM

CN(C)CCCNc1ccc2c3c(cccc13)C(=O)N(CCCN(C)C)C2=O
IC50 [17]: 2.04 µM

O=C1c2cccc3c([N+](=O)[O-])ccc(c23)C(=O)N1c1ccc(-c2cc[n+]3c(c2)-c2cccc[n+]2CC3)cc1
K [18]: 1.7 10^7/M

CN(C)CCN1C(=O)c2cccc3c(N4CC[C@H](O)C4)ccc(c23)C1=O
Kb [5]: 1.8 10^4/M | IC50 [6]: 0.87 µM | IC50 [7]: 0.87 µM | IC50 [8]: 0.87 µM | IC50 [9]: 0.87 µM

O=C1c2cccc3c([N+](=O)[O-])ccc(c23)C(=O)N1CCCl
IC50 [19]: 0.3 µM | IC50 [20]: 0.3 µM

CN(C)CCN1C(=O)c2cccc3c(N4CCN(CCCO)CC4)ccc(c23)C1=O
IC50 [21]: < 7 µM | IC50 [22]: < 7 µM | Kb [11]: 0.47 10^5/M | IC50 [23]: < 7 µM

CN(C)CCN1C(=O)c2cccc3c(N4CCC[C@H]4CO)ccc(c23)C1=O
Kb [5]: 1.8 10^4/M | IC50 [6]: 0.87 µM | IC50 [7]: 0.87 µM | IC50 [8]: 0.87 µM | IC50 [9]: 0.87 µM

C[n+]1ccn(CCCN2C(=O)c3cccc4cccc(c34)C2=O)c1
IC50 [24]: 4.6 µM | IC50 [25]: 4.6 µM | ΔTm [26]: 3 °C

CN(C)CCN1C(=O)c2cccc3c(N(CCCl)CCCl)ccc(c23)C1=O
IC50 [27]: 1.9 µM | IC50 [28]: 1.9 µM

O=C1c2cccc3cccc(c23)C(=O)N1CCCn1cc[n+](Cc2ccccc2)c1
IC50 [24]: 4.6 µM | IC50 [25]: 4.6 µM | ΔTm [26]: 3 °C

CN(C)CCN1C(=O)c2cccc3c(N4CC[C@@H](O)C4)ccc(c23)C1=O
Kb [5]: 1.8 10^4/M | IC50 [6]: 0.87 µM | IC50 [7]: 0.87 µM | IC50 [8]: 0.87 µM | IC50 [9]: 0.87 µM

CN(C)CCCN1C(=O)c2cccc3c(NCCN)ccc(c23)C1=O
IC50 [17]: 56.6 µM

CN(C)CCN1C(=O)c2cccc3c(NCCNCCN)ccc(c23)C1=O
ΔTm [1]: 11.8 °C | IC50 [2]: 3.16 µM | IC50 [3]: 13.1 µM | IC50 [4]: 13.1 µM

CN1CCN(c2ccc3nc(-c4ccc(OCCCCN5CCN(CCCCN6C(=O)c7cccc8cccc(c78)C6=O)CC5)cc4)[nH]c3c2)CC1
inhibition of growth at 10 µM [29]: 50%

O=C1c2cccc3c([N+](=O)[O-])ccc(c23)C(=O)N1CCCCl
IC50 [19]: 0.3 µM | IC50 [20]: 0.3 µM

CC[n+]1ccn(CCCN2C(=O)c3cccc4cccc(c34)C2=O)c1
IC50 [24]: 4.6 µM | IC50 [25]: 4.6 µM | ΔTm [26]: 3 °C

CN(C)CCN1C(=O)c2cccc3c(N4CCN(CCO)CC4)ccc(c23)C1=O
IC50 [21]: < 7 µM | IC50 [22]: < 7 µM | Kb [11]: 0.47 10^5/M | IC50 [23]: < 7 µM

O=C1c2ccc3c4c(ccc(c24)C(=O)N1c1nc(-c2cc4ccccc4oc2=O)cs1)C(=O)N(c1nc(-c2cc4ccccc4oc2=O)cs1)C3=O
IC50 [30]: < 0.1 µM | ΔTm [1]: 0.1 °C | MIC [31]: 18.8 µg/mL (≈ 26 µM) | MIC [32]: 18.8 µg/mL (≈ 26 µM) | MIC [33]: 18.8 µg/mL (≈ 26 µM) | MIC [34]: 18.8 µg/mL (≈ 26 µM)

Nc1ccc2c3c(cccc13)C(=O)N(c1cccc(-c3cc[n+]4c(c3)-c3cccc[n+]3CC4)c1)C2=O
K [18]: 2.3 10^6/M

CCSc1ccc2c3c(cccc13)C(=O)N(CCCn1cc[n+](C)c1)C2=O
IC50 [24]: 4.6 µM | IC50 [25]: 4.6 µM | ΔTm [26]: 3 °C

CN(C)CCN1C(=O)c2cccc3c(N(C)CCCl)ccc(c23)C1=O
IC50 [27]: 1.9 µM | IC50 [28]: 1.9 µM

COS(=O)(=O)CCCCSc1ccc2c3c(cccc13)C(=O)N(CCN(C)C)C2=O
IC50 [27]: 11.7 µM | IC50 [28]: 11.7 µM

O=C1c2cccc3cccc(c23)C(=O)N1CCCCN1CCN(CCCCOc2ccc(-c3nc4ccc(N5CCOCC5)cc4[nH]3)cc2)CC1
inhibition of growth at 10 µM [29]: 50%

CN(C)CCN1C(=O)c2cccc3c(NCCNCCNCCNCCN)ccc(c23)C1=O
ΔTm [1]: 11.8 °C | IC50 [2]: 13.1 µM | IC50 [3]: 13.1 µM | IC50 [4]: 13.1 µM

O=C1c2cccc3c([N+](=O)[O-])ccc(c23)C(=O)N1CCCO
IC50 [19]: 0.7 µM | IC50 [20]: 0.7 µM

COc1cccc(/C=N/N2C(=O)c3cccc4cccc(c34)C2=O)c1O
Kb [35]: 2.25 10^4/M | IC50 [36]: 1430 µg/mL (≈ 4130 µM) | IC50 [37]: 1170 µg/mL (≈ 3380 µM)

CCOc1cc(/C=N/N2C(=O)c3cccc4cccc(c34)C2=O)ccc1O
Kb [35]: 3.33 10^4/M | IC50 [36]: 1280 µg/mL (≈ 3550 µM) | IC50 [37]: 1060 µg/mL (≈ 2940 µM)

O=C1c2cccc3c([N+](=O)[O-])ccc(c23)C(=O)N1CCO
IC50 [19]: 0.7 µM | IC50 [20]: 0.7 µM

CN(C)CCCN1C(=O)c2cccc3c(NCCNC(=N)N)ccc(c23)C1=O
IC50 [17]: 10.4 µM

O=C1c2cccc3cccc(c23)C(=O)N1CCCCCN1CCN(CCCCCOc2ccc(-c3nc4ccc(N5CCOCC5)cc4[nH]3)cc2)CC1
inhibition of growth at 10 µM [29]: 50%

COc1cccc2cc(-c3csc(N4C(=O)c5ccc6c7c(ccc(c57)C4=O)C(=O)N(c4nc(-c5cc7cccc(OC)c7oc5=O)cs4)C6=O)n3)c(=O)oc12
IC50 [30]: < 0.1 µM | ΔTm [1]: 0.1 °C | MIC [31]: 18.8 µg/mL (≈ 24 µM) | MIC [32]: 18.8 µg/mL (≈ 24 µM) | MIC [33]: 18.8 µg/mL (≈ 24 µM) | MIC [34]: 18.8 µg/mL (≈ 24 µM)
